Each structure is given as a SMILES string.

The target of this assay is T1, Kv2.1 α subunit (Rattus norvegicus, UniProt P15387).
T1 construct: gene Kcnb1; homomeric channel
T1 sequence (P15387 1-857): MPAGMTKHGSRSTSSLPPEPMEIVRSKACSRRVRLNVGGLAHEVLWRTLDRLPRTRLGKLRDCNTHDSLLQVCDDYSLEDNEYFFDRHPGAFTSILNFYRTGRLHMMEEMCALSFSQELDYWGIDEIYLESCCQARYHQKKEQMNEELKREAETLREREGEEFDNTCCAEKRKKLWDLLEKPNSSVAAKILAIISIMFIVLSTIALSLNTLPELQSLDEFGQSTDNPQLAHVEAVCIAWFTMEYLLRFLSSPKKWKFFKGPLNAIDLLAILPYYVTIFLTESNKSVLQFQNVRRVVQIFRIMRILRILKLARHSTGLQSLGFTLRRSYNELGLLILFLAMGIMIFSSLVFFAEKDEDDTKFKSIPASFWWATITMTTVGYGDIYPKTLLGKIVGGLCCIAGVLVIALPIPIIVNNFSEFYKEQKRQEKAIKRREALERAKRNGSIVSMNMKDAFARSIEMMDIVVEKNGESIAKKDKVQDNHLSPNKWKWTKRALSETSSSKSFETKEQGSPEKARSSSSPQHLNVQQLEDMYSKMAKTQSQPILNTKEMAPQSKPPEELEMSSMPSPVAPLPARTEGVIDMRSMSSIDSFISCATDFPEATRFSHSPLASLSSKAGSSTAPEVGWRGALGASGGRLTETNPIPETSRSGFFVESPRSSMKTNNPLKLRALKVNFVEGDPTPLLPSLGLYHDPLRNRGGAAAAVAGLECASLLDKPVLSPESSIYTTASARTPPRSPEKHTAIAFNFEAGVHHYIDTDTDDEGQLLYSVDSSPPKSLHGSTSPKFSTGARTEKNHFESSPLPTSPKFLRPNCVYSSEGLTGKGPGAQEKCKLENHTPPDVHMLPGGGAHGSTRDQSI
Nature of the assay: whole-cell patch clamp, tail current amplitude. In kind it is cell-based. A general note: The patch-clamp technique gives a direct electrical read-out from membranes.

For orientation: IC50 means the point on the concentration scale where inhibition reaches its midpoint. A lower IC50 goes with greater potency in that assay. Molecule `C=C[C@@]1(C)CC(=O)[C@]2(O)[C@@]3(C)[C@@H](O)CCC(C)(C)[C@@H]3[C@H](O)[C@H](OC(C)=O)[C@@]2(C)O1` [forskolin] came in with an IC50 of 31.6 µM.

Values taken from paper PMC4427186, “Forskolin Suppresses Delayed-Rectifier K^+ Currents and Enhances Spike Frequency-Dependent Adaptation of Sympathetic Neurons” (PLoS ONE, 2015).
